Experimental data: publication PMC3610893, “The CouPSTU and TarPQM Transporters in Rhodopseudomonas palustris: Redundant, Promiscuous Uptake Systems for Lignin-Derived Aromatic Substrates” (PLoS ONE, 2013)
“And” between values parts separate entries of the source, which are not always exact repeats. Identical values can stand only once.

Experiments:
[1] = target: T1, TarP (RPA1782) periplasmic binding-protein (Rhodopseudomonas palustris, UniProt Q6N8X0); test: Intrinsic tryptophan fluorescence spectroscopy / ligand titrations with TarP (RPA1782); conditions: for Quench of intrinsic tryptophan fluorescence of TarP (RPA1782): equimolar protein and ligand (0.2 µM), excitation 280 nm
T1 sequence (Q6N8X0 20-336): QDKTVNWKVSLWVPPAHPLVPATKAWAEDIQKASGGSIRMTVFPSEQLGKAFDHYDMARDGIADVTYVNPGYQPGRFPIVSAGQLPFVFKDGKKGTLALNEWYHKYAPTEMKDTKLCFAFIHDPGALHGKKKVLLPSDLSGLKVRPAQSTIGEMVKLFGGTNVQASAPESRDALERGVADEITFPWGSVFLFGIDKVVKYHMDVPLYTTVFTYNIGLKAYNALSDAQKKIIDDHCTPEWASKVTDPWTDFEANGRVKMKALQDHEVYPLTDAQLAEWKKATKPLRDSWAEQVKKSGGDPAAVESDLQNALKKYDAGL
Method: (§1) Pure protein was unfolded by dialysis against 1 L of 6 M urea for 16 hours at 4°C. Refolding was effected by dialysis against 2 L of refolding buffer (50 mM Tris-HCl pH 7.2 plus 100 mM NaCl) for 8 hours, the buffer being changed every 2 hours with a final overnight dialysis. Once removed from the dialysis tubing, protein was centrifuged (13,000×g, 10 mins, 4°C) to remove any precipitated misfolded protein.
(§2) Changes in the UV fluorescence of intrinsic tryptophan residues in RPA1782 and RPA1789 were measured using a Cary Eclipse fluorimeter (Varian Ltd, UK) in 10 mM Tris-HCl buffer pH 7.4 at 30°C in a 3 ml volume. Excitation of samples was at 280 nm (5 nm slit width) and emission was recorded at 300–400 nm (20 nm slit width). Ligand titrations were performed with 0.2 µM protein with λex 280 nm λem 340 nm using 5 nm excitation and 20 nm emission slit widths respectively. Except where indicated, data from three independent titrations was used to calculate K d values, by fitting to the quadratic equation for tight binding as previously described.

[2] = target: T2, CouP (RPA1789) periplasmic binding-protein (Rhodopseudomonas palustris, UniProt Q6N8W4); test: Intrinsic tryptophan fluorescence spectroscopy / ligand titrations with CouP (RPA1789); conditions: for Quench of intrinsic tryptophan fluorescence of CouP (RPA1789): 0.2 µM ligand added to 0.2 µM protein (equimolar), excitation 280 nm; for K d with CouP that was not urea treated, relative to refolded protein: fluorescence titrations, CouP not urea treated (endogenous ligand not removed), fold higher
T2 sequence (Q6N8W4 27-385): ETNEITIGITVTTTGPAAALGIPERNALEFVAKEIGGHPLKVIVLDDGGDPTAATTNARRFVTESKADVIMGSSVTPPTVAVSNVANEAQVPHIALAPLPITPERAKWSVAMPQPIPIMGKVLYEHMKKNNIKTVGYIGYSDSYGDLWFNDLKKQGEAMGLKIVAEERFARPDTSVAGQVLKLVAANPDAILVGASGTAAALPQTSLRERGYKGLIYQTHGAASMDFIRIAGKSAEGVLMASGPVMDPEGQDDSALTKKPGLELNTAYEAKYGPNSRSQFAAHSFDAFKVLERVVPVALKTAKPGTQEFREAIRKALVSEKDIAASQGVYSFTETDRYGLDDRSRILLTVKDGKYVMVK
Method: as §1, §2

[3] = target: T3, CouP (RPA1789) (Rhodopseudomonas palustris, UniProt Q6N8W4); test: Isothermal titration calorimetry (ITC) with RPA1789; format: binding
T3 sequence (Q6N8W4 27-385): T2 sequence (Q6N8W4 27-385)
Method: ITC experiments were carried out using a VP-ITC calorimeter (Microcal, Inc., UK). Ligand stock solutions for ITC experiments were made up in aliquots of the final refolding buffer that RPA1789 was dialysed against (50 mM Tris-HCl pH 7.2 plus 100 mM NaCl) and all reactions used the same buffer. The reaction cell contained 1.8 ml of 50 µM protein in refolding buffer. Ligand titrations were carried out at 20°C (except caffeate which was carried out at 25°C) by the injection of 20×15 µl aliquots of 400 µM ligand, from a 300 µl syringe, for a duration of 35 seconds at 7 minute intervals. After taking into account the baseline and any heats of dilution by the ligand, all titrations were integrated using the ORIGIN software programme associated with the calorimeter then exported to in-house numerical routines for data fitting to the Weissman isotherm.

[4] = target: T2, CouP (RPA1789) periplasmic binding-protein; test: Intrinsic tryptophan fluorescence spectroscopy / ligand titrations with CouP (RPA1789); conditions: CouP not urea treated (endogenous ligand not removed)
[5] = target: RPA1789; set-up: method as in PMID 22577139; conditions: read-out: K d for RPA1789 by ITC (literature); cited from earlier work
[6] = ITC, 20°C, 50 µM protein, 50 mM Tris-HCl pH 7.2 plus 100 mM NaCl

Structure (SMILES) | Binding to TarP (RPA1782), fluorescence screen ([1]; equimolar protein and ligand) | Quench of intrinsic tryptophan fluorescence of CouP (RPA1789) [2] | Binding to CouP (RPA1789) ([2]; fluorescence) | Kd [1] | Quench of intrinsic tryptophan fluorescence of TarP (RPA1782) [1] | Kd [2] | K d with CouP that was not urea treated, relative to refolded protein [2] | Kd [3] | ΔH (binding enthalpy) [3, 6] | n (ligand binding stoichiometry) ([3]; ITC, 25°C) | ΔH (binding enthalpy) ([3]; ITC, 25°C) | ΔHdil (heats of dilution of the ligands) ([3]; ITC, 25°C) | ΔS (binding entropy) ([3]; ITC, 25°C) | Binding to CouP that was not urea treated [4] | n (ligand binding stoichiometry) ([3]; ITC, 20°C) | ΔHdil (heats of dilution of the ligands) ([3]; ITC, 20°C) | ΔS (binding entropy) ([3]; ITC, 20°C) | ΔHbind (less favourable enthalpy of binding) ([3]; ITC, CouP, compared with ligands bearing the 4-OH group) | Kd [5]
O=C(O)c1ccc(O)cc1 [4-hydroxybenzoate] | no evidence of binding | did not produce any fluorescence change | no evidence of binding | – | – | – | – | – | – | – | – | – | – | – | – | – | – | – | –
O=C(O)/C=C/c1ccc(O)c(O)c1 [Caffeate, (E)-3-(3,4-dihydroxyphenyl)-2-propenoic acid] | – | 25–50% | – | 14 ± 7 nM | ~5% | 2.4 ± 0.8 nM | 200-1,000 fold | 27 ± 0.07 nM | negligible enthalpy of binding | 0.776±0.005 | 1.78 ± 0.05 kcal/mol | -0.28 kcal/mol | 40 cal mol^−1 K^−1 | – | – | – | – | – | –
O=C(O)/C=C/c1ccccc1 [Cinnamate, (E)-3-phenyl-2-propenoic acid] | – | 25–50% | – | 50 nM and 33 nM | ~5% | 88 ± 8 nM | – | – | 7.45 ± 0.08 kcal/mol | – | – | – | – | no evidence for cinnamate binding | 0.757±0.003 | -0.43 kcal/mol | 56 cal mol^−1 K^−1 | > 4 kcal/mol | –
O=C(O)/C=C/c1ccc(O)cc1 [Coumarate, (E)-3-(4-hydroxyphenyl)-2-propenoic acid] | – | ~30% and 25–50% | – | 8 ± 5 nM | ~5% | 2.6 ± 0.09 nM | 200-1,000 fold | – | 3.23 ± 0.03 kcal/mol | – | – | – | – | – | 0.993±0.003 | -0.26 kcal/mol | 46 cal mol^−1 K^−1 | – | 8.6 µM
COc1cc(/C=C/C(=O)O)ccc1O [Ferulate, (E)-3-(4-hydroxy-3-methoxyphenyl)-2-propenoic acid] | – | 25–50% | – | 15 ± 3 nM | ~5% | 15 ± 6 nM | 200-1,000 fold | – | 3.18 ± 0.03 kcal/mol | – | – | – | – | – | 0.803±0.002 | -0.24 kcal/mol | 43 cal mol^−1 K^−1 | – | –
COc1cc(C=CC(=O)O)cc(OC)c1O [sinapate, 3-(4-hydroxy-3,5-dimethoxyphenyl)-2-propenoic acid] | – | ~5% | – | – | – | – | – | – | – | – | – | – | – | – | – | – | – | – | –
